According to patent publication EP2987533B1, “7-substituted piperazin-1-yl fluoroquinolone compounds, their use in the treatment of cancer, pharmaceutical compositions and a method for preparation” (priority 2014, dated 2016):

Key:
Experiment in all cases: NCI five-dose SRB growth assay
Type in all cases: cell-based
TK-10 = details: Homo sapiens; TK-10 (Renal Cancer), 48 h
CCRF-CEM = details: Homo sapiens; CCRF-CEM (Leukemia), 48 h
LOX IMVI = details: Homo sapiens; LOX IMVI (Melanoma), 48 h
PRMI-8226 = details: Homo sapiens; PRMI-8226 (Leukemia), 48 h
MDA-MB-231/ATCC = details: Homo sapiens; MDA-MB-231/ATCC (Breast Cancer), 48 h
NCI-H226 = details: Homo sapiens; NCI-H226 (Non-Small Cell Lung Cancer), 48 h
T-47D = details: Homo sapiens, T47D; T-47D (Breast Cancer), 48 h
HCT-15 = details: Homo sapiens; HCT-15 (Colon Cancer), 48 h
HT29 = details: Homo sapiens, HT-29; HT29 (Colon Cancer), 48 h
IGROV1 = details: Homo sapiens, IGROV-1; IGROV1 (Ovarian Cancer), 48 h
SNB-75 = details: Homo sapiens; SNB-75 (CNS Cancer), 48 h
OVCAR-3 = details: Homo sapiens; OVCAR-3 (Ovarian Cancer), 48 h
OVCAR-4 = details: Homo sapiens; OVCAR-4 (Ovarian Cancer), 48 h
SN12C = details: Homo sapiens; SN12C (Renal Cancer), 48 h
NCI-H460 = details: Homo sapiens; NCI-H460 (Non-Small Cell Lung Cancer), 48 h
A498 = details: Homo sapiens; A498 (Renal Cancer), 48 h
UO-31 = details: Homo sapiens; UO-31 (Renal Cancer), 48 h
M14 = details: Homo sapiens; M14 (Melanoma), 48 h
K-562 = details: Homo sapiens, K562; K-562 (Leukemia), 48 h
NCI/ADR-RES = details: Homo sapiens; NCI/ADR-RES (Ovarian Cancer), 48 h
HCC-2998 = details: Homo sapiens; HCC-2998 (Colon Cancer), 48 h
PC-3 = details: Homo sapiens; PC-3 (Prostate Cancer), 48 h
SW-620 = details: Homo sapiens; SW-620 (Colon Cancer), 48 h
SK-MEL-2 = details: Homo sapiens; SK-MEL-2 (Melanoma), 48 h
HOP-62 = details: Homo sapiens; HOP-62 (Non-Small Cell Lung Cancer), 48 h
MOLT-4 = details: Homo sapiens; MOLT-4 (Leukemia), 48 h
786-0 = details: Homo sapiens; 786-0 (Renal Cancer), 48 h
SK-MEL-28 = details: Homo sapiens; SK-MEL-28 (Melanoma), 48 h
BT-549 = details: Homo sapiens; BT-549 (Breast Cancer), 48 h
RXF 393 = details: Homo sapiens; RXF 393 (Renal Cancer), 48 h
HS 578T = details: Homo sapiens; HS 578T (Breast Cancer), 48 h
CAKI-1 = details: Homo sapiens; CAKI-1 (Renal Cancer), 48 h
NCI-H522 = details: Homo sapiens; NCI-H522 (Non-Small Cell Lung Cancer), 48 h
U251 = details: Homo sapiens, U-251; U251 (CNS Cancer), 48 h
A549/ATCC = details: Homo sapiens; A549/ATCC (Non-Small Cell Lung Cancer), 48 h
MCF7 = details: Homo sapiens; MCF7 (Breast Cancer), 48 h
SK-OV-3 = details: Homo sapiens; SK-OV-3 (Ovarian Cancer), 48 h
MDA-MB-468 = details: Homo sapiens; MDA-MB-468 (Breast Cancer), 48 h
HOP-92 = details: Homo sapiens; HOP-92 (Non-Small Cell Lung Cancer), 48 h

Structure (SMILES) | GI50 (TK-10) | GI50 (CCRF-CEM) | GI50 (LOX IMVI) | GI50 (PRMI-8226) | GI50 (MDA-MB-231/ATCC) | GI50 (NCI-H226) | GI50 (T-47D) | GI50 (HCT-15) | GI50 (HT29) | GI50 (IGROV1) | GI50 (OVCAR-3) | GI50 (OVCAR-4) | GI50 (SN12C) | GI50 (NCI-H460) | GI50 (A498) | GI50 (UO-31) | GI50 (M14) | GI50 (NCI/ADR-RES) | GI50 (HCC-2998) | GI50 (SW-620) | also measured
CCn1cc(C(=O)O)c(=O)c2cc(F)c(N3CCN(S(=O)(=O)c4ccc(Cl)cc4)CC3)cc21 [Compound 1a] | 3.73 µM | 2.93 µM | 2.4 µM | 3.08 µM | 2.51 µM | 3.02 µM | 3.2 µM | 3.62 µM | 2.64 µM | 3.14 µM | 3.51 µM | 2.2 µM | 2.92 µM | 3.16 µM | 1.81 µM | 2.07 µM | 2.85 µM | 2.98 µM | 4.1 µM | 3.43 µM | GI50 (SNB-75): 2.6 µM; GI50 (K-562): 2.91 µM; GI50 (PC-3): 2.31 µM; GI50 (SK-MEL-2): 2.57 µM; GI50 (HOP-62): 4.47 µM; GI50 (MOLT-4): 3.83 µM; GI50 (786-0): 3.77 µM; GI50 (SK-MEL-28): 4.88 µM; GI50 (BT-549): 2.44 µM; GI50 (RXF 393): 3.32 µM; GI50 (HS 578T): 4.52 µM; GI50 (CAKI-1): 2.75 µM; GI50 (NCI-H522): 1.73 µM; GI50 (U251): 3.1 µM; GI50 (A549/ATCC): 2.81 µM; GI50 (MCF7): 2.97 µM; GI50 (SK-OV-3): 3.28 µM; GI50 (MDA-MB-468): 2.1 µM
CCn1cc(C(=O)O)c(=O)c2cc(F)c(N3CCN(S(=O)(=O)c4ccc(Cl)cc4Cl)CC3)cc21 [Compound 2a] | 4.02 µM | 3.03 µM | 1.48 µM | 2.55 µM | 1.88 µM | 2.6 µM | 3.11 µM | 2.82 µM | 3.63 µM | 2.33 µM | 2.54 µM | 2.58 µM | 2.77 µM | 3.13 µM | 2.99 µM | 2.2 µM | 3.24 µM | 3.28 µM | 2.29 µM | 3.91 µM | GI50 (K-562): 4 µM; GI50 (PC-3): 2.43 µM; GI50 (SK-MEL-2): 2.75 µM; GI50 (HOP-62): 3.08 µM; GI50 (MOLT-4): 3.55 µM; GI50 (786-0): 3.19 µM; GI50 (SK-MEL-28): 3.21 µM; GI50 (BT-549): 2.64 µM; GI50 (RXF 393): 2.08 µM; GI50 (HS 578T): 2.53 µM; GI50 (CAKI-1): 2.01 µM; GI50 (NCI-H522): 1.81 µM; GI50 (U251): 3.3 µM; GI50 (A549/ATCC): 2.89 µM; GI50 (MCF7): 2.95 µM; GI50 (SK-OV-3): 3 µM; GI50 (MDA-MB-468): 1.98 µM; GI50 (HOP-92): 1.22 µM
O=C(O)c1cn(C2CC2)c2cc(N3CCN(S(=O)(=O)c4ccc(Cl)c(Cl)c4)CC3)c(F)cc2c1=O [Compound 3b] | 4.31 µM | 2.61 µM | 1.44 µM | 2.53 µM | 2.14 µM | 3.58 µM | 3.77 µM | 3.3 µM | 3.77 µM | 2.73 µM | 3.9 µM | 2.28 µM | 2.97 µM | 3.66 µM | 2.91 µM | 2.58 µM | 4.06 µM | 4.01 µM | 4.47 µM | 4.05 µM | GI50 (K-562): 3.92 µM; GI50 (PC-3): 2.46 µM; GI50 (SK-MEL-2): 3.16 µM; GI50 (HOP-62): 4.77 µM; GI50 (MOLT-4): 4 µM; GI50 (786-0): 4.02 µM; GI50 (SK-MEL-28): 2.67 µM; GI50 (BT-549): 2.98 µM; GI50 (RXF 393): 2.98 µM; GI50 (HS 578T): 4.26 µM; GI50 (CAKI-1): 2.71 µM; GI50 (NCI-H522): 1.99 µM; GI50 (U251): 3.33 µM; GI50 (A549/ATCC): 3.08 µM; GI50 (MCF7): 2.84 µM; GI50 (MDA-MB-468): 2.25 µM; GI50 (HOP-92): 1.54 µM
Cc1cc(C)c(S(=O)(=O)N2CCN(c3cc4c(cc3F)c(=O)c(C(=O)O)cn4C3CC3)CC2)c(C)c1 [Compound 6b] | 4.57 µM | 2.8 µM | 1.42 µM | 2.34 µM | 2.03 µM | 1.23 µM | 4.81 µM | 2.55 µM | 3.15 µM | 2.66 µM | 3.17 µM | 2.37 µM | 2.61 µM | 3.04 µM | 2.37 µM | 1.96 µM | 4.69 µM | 3.29 µM | 5.37 µM | 3.4 µM | GI50 (SNB-75): 2.23 µM; GI50 (HOP-62): 3.65 µM; GI50 (786-0): 4.08 µM; GI50 (BT-549): 3.34 µM; GI50 (RXF 393): 2.41 µM; GI50 (HS 578T): 2.4 µM; GI50 (CAKI-1): 1.8 µM; GI50 (NCI-H522): 2.8 µM; GI50 (U251): 2.89 µM; GI50 (A549/ATCC): 2.23 µM; GI50 (MCF7): 2.59 µM; GI50 (SK-OV-3): 3.02 µM; GI50 (MDA-MB-468): 1.97 µM; GI50 (HOP-92): 1.52 µM
CCn1cc(C(=O)O)c(=O)c2cc(F)c(N3CCN(S(=O)(=O)c4cccc5ccccc45)CC3)cc21 [Compound 7a] | 7.6 µM | 3.67 µM | 1.63 µM | 2.79 µM | 1.91 µM | 3.71 µM | 3.35 µM | 3.15 µM | 3.95 µM | 2.47 µM | 3.69 µM | 2.6 µM | 2.59 µM | 3.43 µM | 2.74 µM | 2.21 µM | 4.37 µM | 3.2 µM | 4.26 µM | 3.57 µM | GI50 (SNB-75): 1.89 µM; GI50 (K-562): 3.93 µM; GI50 (PC-3): 2.66 µM; GI50 (SK-MEL-2): 3.55 µM; GI50 (HOP-62): 4.6 µM; GI50 (MOLT-4): 4.46 µM; GI50 (786-0): 4.5 µM; GI50 (SK-MEL-28): 6.09 µM; GI50 (BT-549): 3.7 µM; GI50 (RXF 393): 3.19 µM; GI50 (HS 578T): 2.68 µM; GI50 (CAKI-1): 2.33 µM; GI50 (NCI-H522): 2.78 µM; GI50 (U251): 3.29 µM; GI50 (A549/ATCC): 2.87 µM; GI50 (MCF7): 2.72 µM; GI50 (SK-OV-3): 3.11 µM; GI50 (MDA-MB-468): 2.52 µM; GI50 (HOP-92): 1.25 µM
